Measurements from patent US9695155B2, “Herbicidal substituted pyrimidinyloxy benzene compounds” (E. I. DU PONT DE NEMOURS AND COMPANY, priority 2013, dated 2017).

Legend:
[1] = test system: barnyardgrass; assay: Test A preemergence; type: in vivo, Echinochloa crus-galli; settings: for Plant response rating, Barnyardgrass: 0 to 100 scale where 0 is no effect and 100 is complete control
Summary of the method: (§1)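 Compounds in non-phytotoxic solvent with surfactant applied as soil spray preemergence, or postemergence to plants 2-10 cm at one- to two-leaf stage, in loam/sand. After approximately 10 days in greenhouse, injury rated visually versus untreated controls, 0 (no effect) to 100 (complete control).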

[2] = test system: kochia; assay: Test A preemergence; type: in vivo, Kochia scoparia; settings: for Plant response rating, Kochia: 0 to 100 scale where 0 is no effect and 100 is complete control
Summary of the method: as §1

[3] = test system: ragweed; assay: Test A preemergence; type: in vivo, Ambrosia elatior; settings: for Plant response rating, Ragweed: 0 to 100 scale where 0 is no effect and 100 is complete control
Summary of the method: as §1

[4] = test system: Italian ryegrass; assay: Test A preemergence; type: in vivo, Lolium multiflorum; settings: for Plant response rating, Ryegrass, Italian: 0 to 100 scale where 0 is no effect and 100 is complete control
Summary of the method: as §1

[5] = test system: giant foxtail; assay: Test A preemergence; type: in vivo, Setaria faberii; settings: for Plant response rating, Foxtail, Giant: 0 to 100 scale where 0 is no effect and 100 is complete control
Summary of the method: as §1

[6] = test system: pigweed; assay: Test A preemergence; type: in vivo, Amaranthus retroflexus; settings: for Plant response rating, Pigweed: 0 to 100 scale where 0 is no effect and 100 is complete control
Summary of the method: as §1

[7] = test system: barnyardgrass; assay: Test A postemergence; type: in vivo, Echinochloa crus-galli; settings: for Plant response rating, Barnyardgrass: 0 to 100 scale, 0 no effect, 100 complete control; for Barnyardgrass plant response rating: 0 to 100 scale where 0 is no effect and 100 is complete control
Summary of the method: as §1

[8] = test system: kochia; assay: Test A postemergence; type: in vivo, Kochia scoparia; settings: for Plant response rating, Kochia: 0 to 100 scale, 0 no effect, 100 complete control; for Kochia plant response rating: 0 to 100 scale where 0 is no effect and 100 is complete control
Summary of the method: as §1

[9] = test system: ragweed; assay: Test A postemergence; type: in vivo, Ambrosia elatior; settings: for Plant response rating, Ragweed: 0 to 100 scale, 0 no effect, 100 complete control; for Ragweed plant response rating: 0 to 100 scale where 0 is no effect and 100 is complete control
Summary of the method: as §1

[10] = test system: Italian ryegrass; assay: Test A postemergence; type: in vivo, Lolium multiflorum; settings: for Plant response rating, Ryegrass, Italian: 0 to 100 scale, 0 no effect, 100 complete control; for Ryegrass, Italian plant response rating: 0 to 100 scale where 0 is no effect and 100 is complete control
Summary of the method: as §1

[11] = test system: giant foxtail; assay: Test A postemergence; type: in vivo, Setaria faberii; settings: for Plant response rating, Foxtail, Giant: 0 to 100 scale, 0 no effect, 100 complete control; for Foxtail, Giant plant response rating: 0 to 100 scale where 0 is no effect and 100 is complete control
Summary of the method: as §1

[12] = test system: pigweed; assay: Test A postemergence; type: in vivo, Amaranthus retroflexus; settings: for Plant response rating, Pigweed: 0 to 100 scale, 0 no effect, 100 complete control; for Pigweed plant response rating: 0 to 100 scale where 0 is no effect and 100 is complete control
Summary of the method: as §1

[13] = test system: wheat; assay: Test A postemergence; type: in vivo, Triticum aestivum; settings: for Plant response rating, Wheat: 0 to 100 scale, 0 no effect, 100 complete control; for Wheat plant response rating: 0 to 100 scale where 0 is no effect and 100 is complete control
Summary of the method: as §1

[14] = test system: corn; assay: Test A postemergence; type: in vivo, Zea mays; settings: for Plant response rating, Corn: 0 to 100 scale, 0 no effect, 100 complete control; for Corn plant response rating: 0 to 100 scale where 0 is no effect and 100 is complete control
Summary of the method: as §1

[15] = test system: blackgrass; assay: Test A postemergence; type: in vivo, Alopecurus myosuroides; settings: for Plant response rating, Blackgrass: 0 to 100 scale, 0 no effect, 100 complete control; for Blackgrass plant response rating: 0 to 100 scale where 0 is no effect and 100 is complete control
Summary of the method: as §1

[16] = test system: galium; assay: Test A postemergence; type: in vivo, Galium aparine; settings: for Plant response rating, Galium: 0 to 100 scale, 0 no effect, 100 complete control; for Galium plant response rating: 0 to 100 scale where 0 is no effect and 100 is complete control
Summary of the method: as §1

[17] = test system: rice; assay: Test B flooded paddy test; type: in vivo, Oryza sativa; settings: Flood, 250 g ai/ha; 0 to 100 scale where 0 is no effect and 100 is complete control
Summary of the method: (§2)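 Post-emergence paddy-water application at the 2-leaf stage, with 3 cm flood kept for the whole test. Response was judged visually relative to controls after 13 to 15 greenhouse days, 0 indicating no effect and 100 complete control.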

[18] = test system: sedge, umbrella; assay: Test B flooded paddy test; type: in vivo, Cyperus difformis; settings: Flood, 250 g ai/ha; 0 to 100 scale where 0 is no effect and 100 is complete control
Summary of the method: as §2

[19] = test system: Heteranthera limosa; assay: Test B flooded paddy test; type: in vivo; settings: Flood, 250 g ai/ha; 0 to 100 scale where 0 is no effect and 100 is complete control
Summary of the method: as §2

[20] = test system: barnyardgrass; assay: Test B flooded paddy test; type: in vivo, Echinochloa crus-galli; settings: Flood, 250 g ai/ha; 0 to 100 scale where 0 is no effect and 100 is complete control
Summary of the method: as §2

[21] = 31 g ai/ha, visual, approximately 10 days

SMILES: CC(C)Oc1cnn(-c2c(C#N)cccc2Oc2ncc(Cl)cn2)c1 [Compound 149]
- Plant response rating, Barnyardgrass [1, 21]: 40
- Plant response rating, Barnyardgrass ([1]; 125 g ai/ha): 90
- Plant response rating, Kochia [2, 21]: 70
- Plant response rating, Kochia ([2]; 125 g ai/ha): 100
- Plant response rating, Ragweed [3, 21]: 0
- Plant response rating, Ragweed ([3]; 125 g ai/ha): 60
- Plant response rating, Ryegrass, Italian [4, 21]: 0
- Plant response rating, Ryegrass, Italian ([4]; 125 g ai/ha): 20
- Plant response rating, Foxtail, Giant [5, 21]: 60
- Plant response rating, Foxtail, Giant ([5]; 125 g ai/ha): 100
- Plant response rating, Pigweed [6, 21]: 100
- Plant response rating, Pigweed ([6]; 125 g ai/ha): 100
- Plant response rating, Barnyardgrass ([7]; 31 g ai/ha): 20
- Barnyardgrass plant response rating ([7]; 125 g ai/ha): 70
- Plant response rating, Kochia ([8]; 31 g ai/ha): 60
- Kochia plant response rating ([8]; 125 g ai/ha): 70
- Plant response rating, Ragweed ([9]; 31 g ai/ha): 50
- Ragweed plant response rating ([9]; 125 g ai/ha): 80
- Plant response rating, Ryegrass, Italian ([10]; 31 g ai/ha): 0
- Ryegrass, Italian plant response rating ([10]; 125 g ai/ha): 30
- Plant response rating, Foxtail, Giant ([11]; 31 g ai/ha): 20
- Foxtail, Giant plant response rating ([11]; 125 g ai/ha): 90
- Plant response rating, Pigweed ([12]; 31 g ai/ha): 60
- Pigweed plant response rating ([12]; 125 g ai/ha): 100
- Plant response rating, Wheat ([13]; 31 g ai/ha): 0
- Wheat plant response rating ([13]; 125 g ai/ha): 0
- Plant response rating, Corn ([14]; 31 g ai/ha): 0
- Corn plant response rating ([14]; 125 g ai/ha): 20
- Plant response rating, Blackgrass ([15]; 31 g ai/ha): 50
- Blackgrass plant response rating ([15]; 125 g ai/ha): 80
- Plant response rating, Galium ([16]; 31 g ai/ha): 70
- Galium plant response rating ([16]; 125 g ai/ha): 100
- Plant response rating, Rice [17]: 0
- Plant response rating, Sedge, Umbrella [18]: 65
- Plant response rating, Ducksalad [19]: 70
- Plant response rating, Barnyardgrass [20]: 0

SMILES: FC(F)(F)Sc1cnn(-c2ccccc2Oc2ncc(Br)cn2)c1 [Compound 246]
- Plant response rating, Barnyardgrass [1, 21]: 0
- Barnyardgrass plant response rating (0 to 100 scale, 0 is no effect, 100 is complete control) ([1]; 125 g ai/ha): 30
- Plant response rating, Kochia [2, 21]: 0
- Kochia plant response rating (0 to 100 scale) ([2]; 125 g ai/ha): 0
- Plant response rating, Ragweed [3, 21]: 0
- Ragweed plant response rating (0 to 100 scale) ([3]; 125 g ai/ha): 0
- Plant response rating, Ryegrass, Italian [4, 21]: 0
- Ryegrass, Italian plant response rating (0 to 100 scale) ([4]; 125 g ai/ha): 0
- Plant response rating, Foxtail, Giant [5, 21]: 0
- Foxtail, Giant plant response rating (0 to 100 scale) ([5]; 125 g ai/ha): 70
- Plant response rating, Pigweed [6, 21]: 0
- Pigweed plant response rating (0 to 100 scale) ([6]; 125 g ai/ha): 20
- Plant response rating, Barnyardgrass ([7]; 31 g ai/ha): 0
- Plant response rating, Barnyardgrass ([7]; 125 g ai/ha): 0
- Plant response rating, Kochia ([8]; 31 g ai/ha): 20
- Plant response rating, Kochia ([8]; 125 g ai/ha): 70
- Plant response rating, Ragweed ([9]; 31 g ai/ha): 0
- Plant response rating, Ragweed ([9]; 125 g ai/ha): 0
- Plant response rating, Ryegrass, Italian ([10]; 31 g ai/ha): 0
- Plant response rating, Ryegrass, Italian ([10]; 125 g ai/ha): 0
- Plant response rating, Foxtail, Giant ([11]; 31 g ai/ha): 0
- Plant response rating, Foxtail, Giant ([11]; 125 g ai/ha): 0
- Plant response rating, Pigweed ([12]; 31 g ai/ha): 20
- Plant response rating, Pigweed ([12]; 125 g ai/ha): 40
- Plant response rating, Wheat ([13]; 31 g ai/ha): 0
- Plant response rating, Wheat ([13]; 125 g ai/ha): 0
- Plant response rating, Corn ([14]; 31 g ai/ha): 0
- Plant response rating, Corn ([14]; 125 g ai/ha): 20
- Plant response rating, Blackgrass ([15]; 31 g ai/ha): 0
- Plant response rating, Blackgrass ([15]; 125 g ai/ha): 0
- Plant response rating, Galium ([16]; 31 g ai/ha): 20
- Plant response rating, Galium ([16]; 125 g ai/ha): 70
- Plant response rating, Rice [17]: 0
- Plant response rating, Sedge, Umbrella [18]: 0
- Plant response rating, Ducksalad [19]: 0
- Plant response rating, Barnyardgrass [20]: 0

SMILES: FC(F)Oc1cnn(-c2c(Br)cccc2Oc2ncc(Cl)cn2)c1 [Compound 122]
- Barnyardgrass plant response rating (0 to 100 scale) ([1]; 31 g ai/ha): 10
- Plant response rating, Barnyardgrass ([1]; 125 g ai/ha): 70
- Kochia plant response rating (0 to 100 scale) ([2]; 31 g ai/ha): 20
- Plant response rating, Kochia ([2]; 125 g ai/ha): 100
- Ragweed plant response rating (0 to 100 scale) ([3]; 31 g ai/ha): 0
- Plant response rating, Ragweed ([3]; 125 g ai/ha): 0
- Ryegrass, Italian plant response rating (0 to 100 scale) ([4]; 31 g ai/ha): 0
- Plant response rating, Ryegrass, Italian ([4]; 125 g ai/ha): 0
- Foxtail, Giant plant response rating (0 to 100 scale) ([5]; 31 g ai/ha): 50
- Plant response rating, Foxtail, Giant ([5]; 125 g ai/ha): 100
- Pigweed plant response rating (0 to 100 scale) ([6]; 31 g ai/ha): 80
- Plant response rating, Pigweed ([6]; 125 g ai/ha): 100
- Plant response rating, Barnyardgrass ([7]; 31 g ai/ha): 10
- Barnyardgrass plant response rating ([7]; 125 g ai/ha): 40
- Plant response rating, Kochia ([8]; 31 g ai/ha): 50
- Kochia plant response rating ([8]; 125 g ai/ha): 90
- Plant response rating, Ragweed ([9]; 31 g ai/ha): 10
- Ragweed plant response rating ([9]; 125 g ai/ha): 30
- Plant response rating, Ryegrass, Italian ([10]; 31 g ai/ha): 0
- Ryegrass, Italian plant response rating ([10]; 125 g ai/ha): 20
- Plant response rating, Foxtail, Giant ([11]; 31 g ai/ha): 10
- Foxtail, Giant plant response rating ([11]; 125 g ai/ha): 60
- Plant response rating, Pigweed ([12]; 31 g ai/ha): 70
- Pigweed plant response rating ([12]; 125 g ai/ha): 100
- Plant response rating, Wheat ([13]; 31 g ai/ha): 0
- Wheat plant response rating ([13]; 125 g ai/ha): 10
- Plant response rating, Corn ([14]; 31 g ai/ha): 10
- Corn plant response rating ([14]; 125 g ai/ha): 30
- Plant response rating, Blackgrass ([15]; 31 g ai/ha): 30
- Blackgrass plant response rating ([15]; 125 g ai/ha): 80
- Plant response rating, Galium ([16]; 31 g ai/ha): 20
- Galium plant response rating ([16]; 125 g ai/ha): 40
- Plant response rating, Rice [17]: 0
- Plant response rating, Sedge, Umbrella [18]: 75
- Plant response rating, Ducksalad [19]: 80
- Plant response rating, Barnyardgrass [20]: 0
